Experiments:
[1] = Experimental octanol-water partition coefficient (log P); assay type: physicochemical; settings: octanol / Tris buffer 10^−2 mol L^−1 pH 7.4, 37° C., triplicate
Protocol: Tris buffer 10^−2 mol L^−1 pH 7.4 was used as the aqueous phase. Both phases were prepared separately, and contained the hydrazone of interest at low concentrations (5×10^−5 mol L^−1). An ultraviolet/visible molecular absorption spectrum was acquired for each of the phases before mixing. The mixture was stirred at 37° C., protected from light. At the end of the incubation, the mixture was centrifuged for 10 minutes at 3000 rpm, and the layers were separated using pipettes. The concentrations in each phase were measured at the wavelength of greatest absorption of each hydrazone in the respective solvent, through calibration curves. Each compound was analyzed in triplicate and P was calculated as the average concentration ratio Co/Ca where Co is the concentration in the organic phase and Ca in the aqueous phase.
Experimental results were obtained using buffer with physiological pH, and the mixing and separation steps were performed at average human body temperature. This gives the experiment greater biological relevance compared to computational calculations. Even so, the values determined are in agreement with those calculated.

[2] = Stability in aqueous solution containing 1% DMSO (UV-Vis absorption); assay type: physicochemical; settings: 1% DMSO/water, 5×10^−5 mol L^−1, 17° C., over 4 days
Protocol: Stability in aqueous solution containing 1% DMSO: Compounds were prepared at low concentrations (5×10^−5 mol L^−1) in a solution containing 1% DMSO in ultra-pure water. Absorption spectra were obtained between 200 and 800 nm in a molecular absorption spectrophotometer at regular intervals over 12 hours. A final measurement was performed after four days. The room temperature was maintained at 17° C. throughout the experiment.

[3] = Affinity constant for copper(II), Method of Continuous Variations (Job plot); assay type: binding
Protocol: Affinity constant for copper(II): The affinity constant of compound (IV) for copper(II) was determined using the Method of Continuous Variations, which consists of preparing mixtures of different molar fractions of ligand and metal, followed by measuring their UV-Vis absorbance.
From this information it is possible to calculate the complex formation constant which, for the compound of formula (IV), has a value of 5.66±0.08 at 25° C.

[4] = tested on: SynT-Sph1 aggregation in H4 cells; experiment: Cellular model of α-synuclein (SynT-Sph1) aggregation in H4 cells; assay type: cell-based, human
Protocol: The isoniazid-derived hydrazone of formula (IV) was evaluated in greater detail in a cellular model of α-synuclein aggregation in H4 cells. This model consists of the co-transfection of an α-synuclein construct containing the first 83 amino acids of the EGFP protein linked to its C-terminal portion (SynT) with the synphilin-1 protein (Sph1), resulting in positive inclusions for α-Syn which can be observed by fluorescence microscopy after immunostaining.

[5] = rats, intraperitoneal injection, HPLC detection in brain; earlier work of the group; cited from earlier work
[6] = tested on: healthy rats; settings: earlier work of the group; cited from earlier work
[7] = tested on: mice with intracerebroventricular infusion of Aβ oligomers; settings: earlier work of the group, cited from earlier work

SMILES: Cn1ccnc1/C=N/NC(=O)c1ccncc1 [(IV), 1-methyl-1H-imidazole-2-carboxaldehyde isonicotinoyl hydrazone]
- logP [1]: 0.67 ± 0.03
- decrease in the intensity of the hydrazonic band [2]: less than 2%
- complex formation constant with copper(II) ([3]; ML-type complex (1:1), 25° C.): 5.66±0.08
- formation constant compared with clioquinol ([3]; clioquinol under similar conditions): approximately one thousand times lower
- levels of α-Syn expression [4]: does not change
- morphology of the aggregates ([4]; after treatment): less compact after treatment

SMILES: Cn1ccnc1/C=N/NC(=O)c1ccccc1 [(V), 1-methyl-1H-imidazole-2-carboxaldehyde benzoyl hydrazone]
- logP [1]: 1.49 ± 0.13

SMILES: O=C(NN=Cc1ccc2cccc(O)c2n1)c1ccncc1 [INHHQ, 8-hydroxyquinoline-2-carboxaldehyde isonicotinoyl hydrazone]
- decrease in the intensity of the hydrazonic band [2]: approximately 12%
- crossing of the blood-brain barrier [5]: capable of crossing the blood-brain barrier
- acute toxicity [6]: non-toxic
- defensive responses related to fear and anxiety ([7]; healthy mice): does not alter
- short- and long-term memory damage induced by Aβ oligomers ([7]; mice, intracerebroventricular infusion of Aβ oligomers): capable of preventing

Source: patent US12600701B2, “N-acylhydrazonic compounds, use in the treatment of amyloid and non-amyloid degenerative aggregopathies, and pharmaceutical composition” (FACULDADES CATÓLICAS, priority 2020, dated 2026)
